Assay results taken from BindingDB's records for patent US11034694 (Nimbus Saturn, 2021).

Each compound was assayed against Mitogen-activated protein kinase kinase kinase kinase 1 (Homo sapiens, UniProt Q92918) (assay: Biochemical Enzyme Assay).
Description: HPK1 biochemical enzyme assay: HPK1 enzyme inhibition was measured using a microfluidic mobility shift assay. […] Test compounds were titrated in ten point curves (top final assay concentration 3 μM), and preincubated with enzyme/substrate mix for 30 min prior to initiation of the reaction by addition of ATP (1 mM final concentration) and substrate (1 μM final concentration; Carna Biosciences) diluted in assay buffer supplemented by MgCl2 (final assay concentration of 5 mM). Following 60 min incubation at RT, the reaction was terminated by addition of 60 μl/well termination buffer (Carna Biosciences) and signal determination using a Caliper EZ Reader (Perkin Elmer, UK).

Sequence of Mitogen-activated protein kinase kinase kinase kinase 1 (Q92918 whole entry): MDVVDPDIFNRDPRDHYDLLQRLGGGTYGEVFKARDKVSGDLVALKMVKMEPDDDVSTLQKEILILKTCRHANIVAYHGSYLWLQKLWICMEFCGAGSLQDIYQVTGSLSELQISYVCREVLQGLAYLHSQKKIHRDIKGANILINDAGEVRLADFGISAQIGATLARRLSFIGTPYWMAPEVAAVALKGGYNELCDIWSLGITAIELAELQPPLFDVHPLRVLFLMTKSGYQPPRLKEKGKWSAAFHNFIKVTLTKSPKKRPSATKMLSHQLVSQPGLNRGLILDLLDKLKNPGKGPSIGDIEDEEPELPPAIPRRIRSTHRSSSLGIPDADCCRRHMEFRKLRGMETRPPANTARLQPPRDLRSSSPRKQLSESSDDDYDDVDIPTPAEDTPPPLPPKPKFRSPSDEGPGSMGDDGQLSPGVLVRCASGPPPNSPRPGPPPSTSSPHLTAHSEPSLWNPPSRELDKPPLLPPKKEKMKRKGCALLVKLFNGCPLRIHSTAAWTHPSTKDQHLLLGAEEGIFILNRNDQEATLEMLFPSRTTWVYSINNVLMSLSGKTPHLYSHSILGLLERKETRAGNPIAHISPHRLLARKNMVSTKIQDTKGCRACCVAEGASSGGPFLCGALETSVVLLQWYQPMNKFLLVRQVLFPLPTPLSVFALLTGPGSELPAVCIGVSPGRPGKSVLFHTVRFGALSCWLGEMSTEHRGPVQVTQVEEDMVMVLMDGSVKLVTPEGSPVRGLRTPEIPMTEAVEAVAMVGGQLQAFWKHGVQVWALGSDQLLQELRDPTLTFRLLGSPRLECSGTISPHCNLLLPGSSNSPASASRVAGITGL

IC50, < 100 nM:
Cn1ccc2c(-c3ncc(Nc4ccc(N5C[C@H]6COC[C@@H]5C6)cn4)c4c3CNC4=O)ccnc21 [US11034694, Compound I-309]
CNC1CN(c2cccc(Cc3cnc(-c4ccnc5c4ccn5C)c4c3C(=O)NC4)n2)C1 [US11034694, Compound I-449]
Cc1ccn2c(-c3ccc(Nc4ccc(N5CCO[C@@H](CP)C5)cn4)c4c3CNC4=O)cnc2c1F [US11034694, Compound I-460]
